Data from patent publication US9138466B2, “Factor H for transplantation” (Baxter International Inc., priority 2013, dated 2015).
Several values for one entry are separate records, joined by “and”; a condition that tells them apart may be missing. Equal values may be shown once.

Tested on: C3H kidney allografts in pre-sensitized B6 recipients
Test: Pre-sensitized mouse kidney allograft model, RAPA / CFH / FK506, graft survival (Example 2)
Assay type: in vivo
Excerpt: Male C3H (H-2k) and C57BL/6 (B6, H-2b) mice (25-30 g) were used to determine the efficacy of Rapamycin (RAPA) in combination with Factor H (FH) during transplant rejection. C3H mice served as skin graft and kidney donors for pre-sensitization and kidney transplantation. Male C57BL/c (B6) mice were used as recipients. The B6 recipients were pre-sensitized by transplantation of the donor skin grafts, and were subsequently transplanted with kidney allografts between 15 and 20 days after the skin transplantation. […]
Mice were monitored daily for signs of rejection and were euthanized at the end point of the experiment, which was defined as when transplants developed functional deterioration due to severe rejection or on POD60 and POD100. Renal graft function was monitored by plasma creatinine (Cr) blood urea nitrogen (BUN) and hematocrit (Hct) levels by an I-Stat potable analyzer (Abaxis). Circulating donor specific antibodies (DSAs) were determined prior to kidney transplantation and at the endpoint of study by flow cytometry.

## CO[C@H]1C[C@@H]2CC[C@@H](C)[C@@](O)(O2)C(=O)C(=O)N2CCCC[C@H]2C(=O)O[C@H]([C@H](C)C[C@@H]2CC[C@@H](O)[C@H](OC)C2)CC(=O)[C@H](C)/C=C(\C)[C@@H](O)[C@@H](OC)C(=O)[C@H](C)C[C@H](C)/C=C/C=C/C=C/1C [RAPA Alone, Rapamycin]
Individual grafts, pre-sensitized kidney transplant model
  Survival: 8 days (2×) and 37 days and 10 days and 11 days and 12 days and 22 days and 14 days and 16 days and 20 days
Per cohort, untreated controls 8 days
  MST (mean survival time): 14 days
